Measurements taken from the CheMixHub viscosity set.
“And” between values parts separate entries of the source, which are not always exact repeats. Equal entries are not always repeated.

Assay: xn = mol fraction of the nth substance listed

Clc1ccc(Cl)c(Cl)c1 + Nc1cccc(Cl)c1
viscosity [mPa·s], 100 kPa
Conditions	x2 = 0.0895	x2 = 0.1795	x2 = 0.3125	x2 = 0.4256	x2 = 0.5169	x2 = 0.6254	x2 = 0.7145	x2 = 0.8102	x2 = 0.9012
303.15 K	1.993	2.225	2.565	2.851	3.079	3.348	3.566	3.798	4.017
308.15 K	1.825	2.033	2.337	2.593	2.797	3.037	3.231	3.437	3.631
313.15 K	1.658	1.843	2.111	2.336	2.516	2.727	2.896	3.078	3.248
318.15 K	1.493	1.653	1.887	2.083	2.237	2.419	2.566	2.722	2.867

Clc1ccc(Cl)c(Cl)c1 + Nc1ccccc1Cl
viscosity [mPa·s], 101 kPa
Conditions	x2 = 0.1164	x2 = 0.2287	x2 = 0.337	x2 = 0.4415	x2 = 0.5425	x2 = 0.6402	x2 = 0.7346	x2 = 0.8259	x2 = 0.9143
303.15 K	1.936	2.118	2.307	2.504	2.708	2.919	3.137	3.361	3.59
308.15 K	1.773	1.935	2.103	2.277	2.456	2.639	2.827	3.018	3.214
313.15 K	1.614	1.761	1.912	2.067	2.226	2.388	2.553	2.72	2.889
318.15 K	1.46	1.595	1.734	1.875	2.019	2.165	2.313	2.462	2.612

CC(N)C(=O)O (centres undefined) + O
viscosity, 101 kPa
Conditions	x1 = 0.0004	x1 = 0.0007	x1 = 0.001	x1 = 0.0018	x1 = 0.0022	x1 = 0.0025	x1 = 0.0029	x1 = 0.0032	x1 = 0.0036
293.15 K	1.006 mPa·s	1.012 mPa·s	1.017 mPa·s and 1.022 mPa·s	–	–	1.038 mPa·s	1.043 mPa·s	–	–
298.15 K	0.8956 mPa·s	0.9003 mPa·s	0.9054 mPa·s	0.915 mPa·s	0.9199 mPa·s	0.9246 mPa·s	0.929 mPa·s	0.934 mPa·s	0.9389 mPa·s
303.15 K	0.8028 mPa·s	0.8077 mPa·s	0.8122 mPa·s	0.8213 mPa·s	0.8256 mPa·s	0.8299 mPa·s	0.8341 mPa·s	0.8382 mPa·s	0.8429 mPa·s
308.15 K	0.7254 mPa·s	0.7303 mPa·s	0.7349 mPa·s	0.7436 mPa·s	0.7478 mPa·s	0.7519 mPa·s	0.7558 mPa·s	0.7599 mPa·s	0.7635 mPa·s
313.15 K	0.6592 mPa·s	0.6641 mPa·s	0.6726 mPa·s	0.6767 mPa·s	0.6804 mPa·s	–	0.688 mPa·s	0.6916 mPa·s	0.6953 mPa·s

CCCCCCCCCCCCCC[P+](CCCCCC)(CCCCCC)CCCCCC.c1ccc2[n-]cnc2c1 + O
Conditions	viscosity [mPa·s]
298.15 K, 100 kPa, x2 = 0.759	207

Nc1ccn([C@@H]2O[C@H](CO)C(O)C2O)c(=O)n1 (some centres undefined) + O
viscosity [mPa·s], 101.3 kPa
Conditions	293.15 K	298.15 K	303.15 K	308.15 K	313.15 K	318.15 K
x1 = 0.0001861	–	0.895	–	0.723	–	0.6
x1 = 0.000263	1.008	0.897	0.809	0.74	0.625	–
x1 = 0.000342	1.009	0.898	0.81	0.741	0.626	–
x1 = 0.0003829	–	0.899	–	0.727	–	0.603
x1 = 0.000448	1.012	0.901	0.813	0.744	0.628	–
x1 = 0.000537	1.014	0.903	0.815	0.746	0.63	–
x1 = 0.0005621	–	0.903	–	0.73	–	0.606
x1 = 0.000632	1.016	0.905	0.817	0.748	0.632	–
x1 = 0.000689	–	0.906	–	0.733	–	0.608
x1 = 0.000722	1.018	0.907	0.819	0.75	0.634	–
x1 = 0.0007525	–	0.907	–	0.734	–	0.609
x1 = 0.0007845	–	0.909	–	0.735	–	0.609

O=[N+]([O-])[O-].O=[N+]([O-])[O-].O=[N+]([O-])[O-].[Y+3] + O
viscosity [mPa·s], 101.3 kPa
Conditions	x1 = 0.008908	x1 = 0.01764	x1 = 0.02626	x1 = 0.03447	x1 = 0.05042	x1 = 0.06636	x1 = 0.08199
293.15 K	1.335	1.809	2.474	3.484	7.18	15.24	33.5
298.15 K	1.191	1.61	2.197	3.056	6.164	12.8	26.72
308.15 K	0.9655	1.305	1.765	2.405	4.677	8.991	18.14

[Br-].[K+] + O
Conditions	viscosity
293.15 K, 101.3 kPa, x1 = 0.0009	0.9993 mPa·s
293.15 K, 101.3 kPa, x1 = 0.0018	0.9961 mPa·s
293.15 K, 101.3 kPa, x1 = 0.00893	0.9721 mPa·s
293.15 K, 101.3 kPa, x1 = 0.03478	0.9229 mPa·s
293.15 K, 101.3 kPa, x1 = 0.05127	0.9162 mPa·s
293.15 K, 101.3 kPa, x1 = 0.06722	0.9253 mPa·s
298.15 K, 100 kPa, x1 = 0.002229	0.8854 mPa·s
298.15 K, 100 kPa, x1 = 0.004266	0.8805 mPa·s
298.15 K, 100 kPa, x1 = 0.008299	0.8743 mPa·s
298.15 K, 100 kPa, x1 = 0.03864	0.8498 mPa·s
298.15 K, 101.3 kPa, x1 = 0.0009	0.8884 mPa·s and 0.8888 mPa·s
298.15 K, 101.3 kPa, x1 = 0.001798	0.8873 mPa·s
298.15 K, 101.3 kPa, x1 = 0.0018	0.8862 mPa·s
298.15 K, 101.3 kPa, x1 = 0.00359	0.8842 mPa·s
298.15 K, 101.3 kPa, x1 = 0.005732	0.8803 mPa·s
298.15 K, 101.3 kPa, x1 = 0.008927	0.8746 mPa·s
298.15 K, 101.3 kPa, x1 = 0.00893	0.8692 mPa·s
298.15 K, 101.3 kPa, x1 = 0.01421	0.8666 mPa·s
298.15 K, 101.3 kPa, x1 = 0.0177	0.8529 mPa·s
298.15 K, 101.3 kPa, x1 = 0.02116	0.8588 mPa·s
298.15 K, 101.3 kPa, x1 = 0.03478	0.8352 mPa·s
298.15 K, 101.3 kPa, x1 = 0.05127	0.8342 mPa·s
303.15 K, 101.3 kPa, x1 = 0.0009	0.7962 mPa·s
303.15 K, 101.3 kPa, x1 = 0.0018	0.7947 mPa·s
303.15 K, 101.3 kPa, x1 = 0.00893	0.7827 mPa·s
303.15 K, 101.3 kPa, x1 = 0.03478	0.7609 mPa·s
303.15 K, 101.3 kPa, x1 = 0.05127	0.7639 mPa·s
303.15 K, 101.3 kPa, x1 = 0.06722	0.7781 mPa·s
308.15 K, 101.3 kPa, x1 = 0.0009	0.7187 mPa·s and 0.7188 mPa·s
308.15 K, 101.3 kPa, x1 = 0.001798	0.7187 mPa·s
308.15 K, 101.3 kPa, x1 = 0.0018	0.7177 mPa·s
308.15 K, 101.3 kPa, x1 = 0.00359	0.7178 mPa·s
308.15 K, 101.3 kPa, x1 = 0.005732	0.7165 mPa·s
308.15 K, 101.3 kPa, x1 = 0.008927	0.7145 mPa·s
308.15 K, 101.3 kPa, x1 = 0.00893	0.7095 mPa·s
308.15 K, 101.3 kPa, x1 = 0.01421	0.7121 mPa·s
308.15 K, 101.3 kPa, x1 = 0.0177	0.7021 mPa·s
308.15 K, 101.3 kPa, x1 = 0.02116	0.7104 mPa·s
308.15 K, 101.3 kPa, x1 = 0.03478	0.6969 mPa·s
308.15 K, 101.3 kPa, x1 = 0.05127	0.7029 mPa·s
308.15 K, 101.3 kPa, x1 = 0.06722	0.7189 mPa·s
312.45 K, 100 kPa, x1 = 0.002229	0.661 mPa·s
312.85 K, 100 kPa, x1 = 0.01672	0.6499 mPa·s
313.55 K, 100 kPa, x1 = 0.03864	0.6449 mPa·s
313.85 K, 100 kPa, x1 = 0.004266	0.6426 mPa·s
313.95 K, 100 kPa, x1 = 0.008299	0.6399 mPa·s
318.15 K, 101.3 kPa, x1 = 0.0009	0.5963 mPa·s and 0.5961 mPa·s
318.15 K, 101.3 kPa, x1 = 0.001798	0.5966 mPa·s
318.15 K, 101.3 kPa, x1 = 0.0018	0.596 mPa·s
318.15 K, 101.3 kPa, x1 = 0.00359	0.5969 mPa·s
318.15 K, 101.3 kPa, x1 = 0.005732	0.5913 mPa·s
318.15 K, 101.3 kPa, x1 = 0.008927	0.5975 mPa·s
318.15 K, 101.3 kPa, x1 = 0.00893	0.5928 mPa·s
318.15 K, 101.3 kPa, x1 = 0.01421	0.5983 mPa·s
318.15 K, 101.3 kPa, x1 = 0.0177	0.5908 mPa·s
318.15 K, 101.3 kPa, x1 = 0.02116	0.5998 mPa·s
318.15 K, 101.3 kPa, x1 = 0.03478	0.593 mPa·s
318.15 K, 101.3 kPa, x1 = 0.05127	0.6036 mPa·s
318.15 K, 101.3 kPa, x1 = 0.06722	0.6221 mPa·s
321.85 K, 100 kPa, x1 = 0.002229	0.5597 mPa·s
322.75 K, 100 kPa, x1 = 0.01672	0.5528 mPa·s
322.95 K, 100 kPa, x1 = 0.004266	0.552 mPa·s
